Laboratory results published in ChEMBL document CHEMBL1133964, “Synthesis and biological data of 4-amino-1-(2-chloro-2-phenylethyl)-1H-pyrazolo[3,4-b]pyridine-5-carboxylic acid ethyl esters, a new series of A1-adenosine receptor (A1AR) ligands” (Bioorg Med Chem Lett, 2001).
pKi: −log10 of the molar value.

Experiments:
[1] = test system: Adenosine receptor A2a (Bos taurus); test: Percent inhibition of [3H]CGS-21680 binding to A2A adenosine receptor of bovine striatal membrane at 10 uM
[2] = target: T1, Adenosine receptor A1 (Bos taurus, UniProt P28190); test: Displacement of [3H]CHA from Adenosine A1 receptor in bovine cortical membrane expressed as Ki; assay type: cell membranes
T1 sequence (P28190 whole entry): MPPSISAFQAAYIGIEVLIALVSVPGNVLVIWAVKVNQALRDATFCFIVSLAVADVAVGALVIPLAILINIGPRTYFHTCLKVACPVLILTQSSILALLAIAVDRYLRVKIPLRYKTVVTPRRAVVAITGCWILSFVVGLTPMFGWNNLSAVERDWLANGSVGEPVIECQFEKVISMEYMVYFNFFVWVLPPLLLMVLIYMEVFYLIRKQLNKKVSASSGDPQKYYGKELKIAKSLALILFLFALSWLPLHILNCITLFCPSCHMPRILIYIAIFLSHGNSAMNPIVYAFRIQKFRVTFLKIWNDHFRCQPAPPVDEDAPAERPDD

[3] = target: T2, Adenosine receptor A1 (Bos taurus) (UniProt P28190); test: Percent inhibition of [3H]CHA binding at Adenosine A1 receptor in bovine cortical membrane at 10 uM; assay type: cell membranes
T2 sequence (whole entry): T1 sequence (P28190 whole entry)

[4] = target: Adenosine receptor A2a (Bos taurus); test: Displacement of [3H]CGS-21680 binding at A2A adenosine receptor in bovine striatal membrane

| SMILES | inhibition [1] [%] | pKi [2] | inhibition [3] [%] | pKi [4] |
| --- | --- | --- | --- | --- |
| CCOC(=O)c1cnc2c(cnn2CC(Cl)c2ccccc2)c1N1CCN(C)CC1 (stereo not drawn) |  |  | 22 | 5.67 |
| CCCCNc1c(C(=O)OCC)cnc2c1cnn2CC(Cl)c1ccccc1 (stereo not drawn) | 3 | 5.39 |  |  |
| CCOC(=O)c1cnc2c(cnn2CC(Cl)c2ccccc2)c1N1CCCCCC1 (stereo not drawn) | 22 |  | 35 |  |
| CCOC(=O)c1cnc2c(cnn2CC(Cl)c2ccccc2)c1NC(C)(C)C (stereo not drawn) |  | 5.32 |  |  |
| CCOC(=O)c1cnc2c(cnn2CC(Cl)c2ccccc2)c1N1CCNCC1 (stereo not drawn) | 6 |  | 0 |  |
| CCOC(=O)c1cnc2c(cnn2CC(Cl)c2ccccc2)c1N1CCCCC1 (stereo not drawn) | 23 |  | 41 |  |

Results, then the compound that gave them:

| inhibition [1] [%] | pKi [2] | inhibition [3] [%] | pKi [4] | SMILES |
| --- | --- | --- | --- | --- |
| 0 | 6.86 |  |  | CCOC(=O)c1cnc2c(cnn2CC(Cl)c2ccccc2)c1NCc1ccccc1 (stereo not drawn) |
| 0 | 6.33 |  |  | CCOC(=O)c1cnc2c(cnn2CC(Cl)c2ccccc2)c1N1CCOCC1 (stereo not drawn) |
| 11 | 6.46 |  |  | CCOC(=O)c1cnc2c(cnn2CC(Cl)c2ccccc2)c1Nc1ccccc1 (stereo not drawn) |
| 10 | 6.95 |  |  | CCOC(=O)c1cnc2c(cnn2CC(Cl)c2ccccc2)c1NC1CC1 (stereo not drawn) |
|  | 7.00 |  |  | CCCNc1c(C(=O)OCC)cnc2c1cnn2CC(Cl)c1ccccc1 (stereo not drawn) |
|  | 7.01 |  |  | CCOC(=O)c1cnc2c(cnn2CC(Cl)c2ccccc2)c1N1CCCC1 (stereo not drawn) |
|  | 7.30 |  |  | CCOC(=O)c1cnc2c(cnn2CC(Cl)c2ccccc2)c1NCCc1ccccc1 (stereo not drawn) |
|  | 6.82 |  |  | CCOCCNc1c(C(=O)OCC)cnc2c1cnn2CC(Cl)c1ccccc1 (stereo not drawn) |
